Results taken from patent publication US20250282728A1, “NITROGEN COMPRISING HETEROCYCLIC DERIVATIVES FOR THE TREATMENT OF DISORDERS ASSOCIATED WITH GPR55 RECEPTOR” (Cerevance, Inc., priority 2022, published 2025).
pEC50: −log10 of the molar value.

Legend:
[1] = tested on: striatal medium spiny neurons; experiment: Electrophysiology assay: whole-cell patch clamp, firing frequency; assay type: cell-based, Wistar rat; conditions: rat striatal cultures, current steps 10-200 pA
Procedure: Selected compounds were tested in electrophysiology.
Striatal cultures were prepared as follows. Wistar rat embryos (E18) were sacrificed by cervical dislocation and brains removed into an ice-cold hanks balanced salt solution (HBSS) containing 10 mM HEPES, 1 mM sodium pyruvate and 0.035% sodium bicarbonate. The brain was hemisected, striata removed and placed in a papain solution (Worthington LK003150) for 10 min at 37° C. Tissue was then vigorously triturated until devoid of clumps, passed through a 70 μm mesh filter and centrifuged at 1000 rcf for 5 min. Supernatant was discarded and cells resuspended and centrifuged once more through an ovomucoid gradient before final resuspension in plating medium (containing EMEM 75%, FBS 10%, glutamate 12.5 μM, GlutaMax 0.5 mM, sodium pyruvate 10 mM, glucose 33.3 mM, HEPES […]). Cells were counted and spot plated onto 13 mm coverslips at a density of 200K. After 3 h, solution was topped up to 1 ml with growth medium (containing NBplus 98%, B27plus 2%, GlutaMax 0.5 mM). […]
Whole-cell patch clamp recordings were performed from visually identified medium spiny neurons. A step protocol was applied to inject current into the cell (10-200 pA, 10 pA steps, 500 ms) and resulting action potentials recorded. […] Frequency of firing was analysed off-line using Clampfit software.

rat GPR55 = target: T1, rat GPR55 (Rattus norvegicus, UniProt F1MAK4); experiment: Ca2+ mobilization assay (FLIPR, Calcium5 dye), rat GPR55; assay type: cell-based; conditions: HEK293 cells co-expressing PK-tagged rat GPR55 and EA-tagged beta-arrestin; intracellular calcium increase
T1 construct: expressed in transfected cells; host or cells: HEK293 (human embryonic kidney) cells
T1 sequence (F1MAK4 1-319): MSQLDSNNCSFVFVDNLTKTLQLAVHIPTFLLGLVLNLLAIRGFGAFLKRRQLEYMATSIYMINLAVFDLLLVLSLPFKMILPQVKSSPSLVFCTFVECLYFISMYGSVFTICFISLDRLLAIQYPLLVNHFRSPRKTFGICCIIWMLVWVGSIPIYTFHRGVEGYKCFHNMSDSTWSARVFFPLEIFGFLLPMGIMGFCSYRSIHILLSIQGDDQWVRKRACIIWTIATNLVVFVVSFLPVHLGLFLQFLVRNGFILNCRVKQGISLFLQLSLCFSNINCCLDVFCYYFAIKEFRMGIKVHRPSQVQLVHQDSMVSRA
Procedure: (§1) This cell-based assay measures the ability of compounds to activate the GPR55 receptor by measuring changes in intracellular calcium levels. HEK293 (human embryonic kidney) cells co-expressing recombinant ProLink (PK) tagged human or rat GPR55 and Enzyme Acceptor (EA) tagged beta-arrestin were seeded into PDL-coated, black-walled clear-bottom 384 well plates in assay buffer (25 mM HEPES, HBSS, 1 mM Probenicid, 0.1% BSA, pH 7.4) containing Calcium5 dye (Molecular Devices). Cells were incubated in suspension with the Calcium5 dye for 1 hour at 37° C., 5% CO2. Dilution series of the compounds in assay buffer were added to the cells in duplicate wells and compound-mediated real-time increases in intracellular calcium concentration were recorded as increased fluorescence using the Molecular Devices FLIPR instrument. Kinetic traces were reduced to a numerical value by subtracting the minimum response from the maximum response.

human GPR55 = target: T2, human GPR55 (Homo sapiens, UniProt Q9Y2T6); experiment: Ca2+ mobilization assay (FLIPR, Calcium5 dye), human GPR55; assay type: cell-based; conditions: HEK293 cells co-expressing PK-tagged human GPR55 and EA-tagged beta-arrestin; intracellular calcium increase
T2 construct: expressed in transfected cells; host or cells: HEK293 (human embryonic kidney) cells
Procedure: as §1

T2 sequence (Q9Y2T6 whole entry): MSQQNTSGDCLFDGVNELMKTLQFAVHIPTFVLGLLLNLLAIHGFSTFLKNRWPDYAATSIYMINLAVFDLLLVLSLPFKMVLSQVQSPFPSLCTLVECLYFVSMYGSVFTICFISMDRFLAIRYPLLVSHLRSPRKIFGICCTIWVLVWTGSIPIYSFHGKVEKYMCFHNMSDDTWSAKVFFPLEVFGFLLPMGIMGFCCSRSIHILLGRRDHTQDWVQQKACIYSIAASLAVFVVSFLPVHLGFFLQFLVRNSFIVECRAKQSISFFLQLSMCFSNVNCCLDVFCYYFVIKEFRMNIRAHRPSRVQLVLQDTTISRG

pEC50 (rat GPR55)	pEC50 (human GPR55)	SMILES	firing frequency of medium spiny neurons relative to baseline ([1]; 1 μM, FIG. 3)	firing frequency of medium spiny neurons relative to baseline ([1]; 10 μM, FIG. 2)
≥ 7.30	≥ 7.30	C[C@@H](Nc1cnc(-c2cncc(S(C)(=O)=O)c2)cn1)c1ccc(F)cc1 [Example 18, (R)-N-(1-(4-fluorophenyl)ethyl)-5-(5-(methylsulfonyl)pyridin-3-yl)pyrazin-2-amine]		
≥ 6.00	≥ 6.00	C[C@@H](Nc1cnc(-c2cncc(C(O)C(F)F)c2)cn1)c1ccc(F)cc1 (single isomer, unassigned) [Example 54b]		
≥ 5.30	≥ 6.00	C[C@@H](Nc1ncc(-c2ccc3ncn(C)c3c2)nn1)c1ccc(F)cc1 [Example 81, (R)-N-(1-(4-fluorophenyl)ethyl)-6-(1-methyl-1H-benzo[d]imidazol-6-yl)-1,2,4-triazin-3-amine]		
≥ 6.00	≥ 7.30	CC(Nc1cc(F)c(-c2cncc(S(C)(=O)=O)c2)cn1)c1ccc(F)cc1 (single isomer, unassigned) [Example 29a, 4-fluoro-N-(1-(4-fluorophenyl)ethyl)-5′-(methylsulfonyl)-[3,3′-bipyridin]-6-amine]		
≥ 5.30	≥ 6.00	CCc1cncc(-c2ccc(N[C@H](C)c3ccc(C)cc3)nc2)c1 [Example 50, (R)-5′-ethyl-N-(1-(p-tolyl)ethyl)-[3,3′-bipyridin]-6-amine]		
≥ 6.00	≥ 6.70	C[C@@H](Nc1cnc(-c2cncc(OCC(F)(F)F)c2)cn1)c1ccc(F)cc1 [Example 42, (R)-N-(1-(4-fluorophenyl)ethyl)-5-(5-(2,2,2-trifluoroethoxy)pyridin-3-yl)pyrazin-2-amine]		
≥ 6.00	≥ 7.30	C[C@@H](Nc1ccc(-c2cncc(C3CC3)c2)cn1)c1ccc(F)cc1 [Example 5, (R)-5′-cyclopropyl-N-(1-(4-fluorophenyl)ethyl)-[3,3′-bipyridin]-6-amine]		
≥ 7.30	≥ 6.00	CS(=O)(=O)c1cncc(-c2ccc(NC3CCc4cc(F)ccc43)nc2)c1 (stereo not drawn) [Example 38, N-(5-fluoro-2,3-dihydro-1H-inden-1-yl)-5′-(methylsulfonyl)-[3,3′-bipyridin]-6-amine]		
≥ 6.00	≥ 6.00	C[C@@H](Nc1cnc(-c2cncc(OC(F)F)c2)cn1)c1ccc(F)cc1 [Example 39, (R)-5-(5-(difluoromethoxy)pyridin-3-yl)-N-(1-(4-fluorophenyl)ethyl)pyrazin-2-amine]		
≥ 6.00	≥ 6.00	C[C@@H](Nc1cnc(-c2ccc3oc(=O)n(C)c3c2)cn1)c1ccc(F)cc1 [Example 62, (R)-5-(5-((1-(4-fluorophenyl)ethyl)amino)pyrazin-2-yl)-3-methylbenzo[d]oxazol-2(3H)-one]		
≥ 6.00	≥ 6.00	C[C@@H](Nc1ncc(-c2ccc3oc(=O)[nH]c3c2)nn1)c1ccc(F)cc1 [Example 69, (R)-5-(3-((1-(4-fluorophenyl)ethyl)amino)-1,2,4-triazin-6-yl)benzo[d]oxazol-2(3H)-one]		
≥ 6.00	≥ 6.70	CCS(=O)(=O)c1cncc(-c2ccc(N[C@H](C)c3ccc(F)cc3)nc2)c1 [Example 15, (R)-5′-(ethylsulfonyl)-N-(1-(4-fluorophenyl)ethyl)-[3,3′-bipyridin]-6-amine]		

Continued, compound first:

SMILES	pEC50 (rat GPR55)	pEC50 (human GPR55)	firing frequency of medium spiny neurons relative to baseline ([1]; 1 μM, FIG. 3)	firing frequency of medium spiny neurons relative to baseline ([1]; 10 μM, FIG. 2)
C[C@@H](Nc1cnc(-c2cncc(CC(F)F)c2)cn1)c1ccc(F)cc1 [Example 31, (R)-5-(5-(2,2-difluoroethyl)pyridin-3-yl)-N-(1-(4-fluorophenyl)ethyl)pyrazin-2-amine]	≥ 7.30	≥ 7.30	significantly reduced the frequency	
CSCn1c(=O)oc2ccc(-c3cnc(N[C@H](C)c4ccc(F)cc4)nn3)cc21 [Example 70, (R)-5-(3-((1-(4-fluorophenyl)ethyl)amino)-1,2,4-triazin-6-yl)-3-((methylthio)methyl)benzo[d]oxazol-2(3H)-one]	≥ 6.70	≥ 6.70		
C[C@@H](Nc1ccc(-c2ccc3oc(=O)[nH]c3c2)cn1)c1ccc(F)cc1 [Example 59, (R)-5-(6-((1-(4-fluorophenyl)ethyl)amino)pyridin-3-yl)benzo[d]oxazol-2(3H)-one]	≥ 5.30	≥ 6.00		
Cc1nc(N[C@H](C)c2ccc(F)cc2)ccc1-c1cncc(S(C)(=O)=O)c1 [Example 22, (R)-N-(1-(4-fluorophenyl)ethyl)-2-methyl-5′-(methylsulfonyl)-[3,3′-bipyridin]-6-amine]	≥ 5.30	≥ 6.70		
COc1cncc(-c2ccc(N[C@H](C)c3ccc(F)cc3)nc2)c1 [Example 6, (R)-N-(1-(4-fluorophenyl)ethyl)-5′-methoxy-[3,3′-bipyridin]-6-amine]	≥ 7.30	≥ 6.70		significantly reduced the frequency
C[C@@H](Nc1ncc(-c2cncc(C=C(F)F)c2)nn1)c1ccc(F)cc1 [Example 40, (R)-6-(5-(2,2-difluorovinyl)pyridin-3-yl)-N-(1-(4-fluorophenyl)ethyl)-1,2,4-triazin-3-amine]	≥ 5.30	≥ 6.70		
Cc1cncc(-c2ccc(NC(C)c3ccc(Cl)cc3)nc2)c1 (single isomer, unassigned) [Example 46a, N-(1-(4-chlorophenyl)ethyl)-5′-methyl-[3,3′-bipyridin]-6-amine]	≥ 6.70	≥ 6.00		
C=Cc1cncc(-c2ccc(N[C@H](C)c3ccc(F)cc3)nc2)c1 [Example 20, (R)-N-(1-(4-fluorophenyl)ethyl)-5′-vinyl-[3,3′-bipyridin]-6-amine]	≥ 7.30	≥ 7.30		
C[C@@H](Nc1ccc(-c2ccc3c(c2)N(C)C(=O)C3(F)F)cn1)c1ccc(F)cc1 [Example 79, (R)-3,3-difluoro-6-(6-((1-(4-fluorophenyl)ethyl)amino)pyridin-3-yl)-1-methylindolin-2-one]	≥ 5.30	≥ 5.30		
C[C@@H](Nc1cnc(-c2cncc(C=C(F)F)c2)cn1)c1ccc(F)cc1 [Example 34, (R)-5-(5-(2,2-difluorovinyl)pyridin-3-yl)-N-(1-(4-fluorophenyl)ethyl)pyrazin-2-amine]	≥ 6.00	≥ 7.30		
C[C@@H](Nc1ncc(-c2cncc(S(C)(=O)=O)c2)nn1)c1ccc(F)cc1 [Example 28, (R)-N-(1-(4-fluorophenyl)ethyl)-6-(5-(methylsulfonyl)pyridin-3-yl)-1,2,4-triazin-3-amine]	≥ 6.00	≥ 7.30		
